Source: patent US20230391768A2, “IMIDAZOPYRIDINE DERIVATIVES AND AZA-IMIDAZOPYRIDINE DERIVATIVES AS JANUS KINASE 2 INHIBITORS AND USES THEREOF” (Dana-Farber Cancer Institute, Inc., priority 2018, published 2023)

Tests used:
Test in all cases: KINOMEscan
Format in all cases: binding
TGFBR1 = TGFBR1 (Homo sapiens (Human), UniProt P36897); conditions: read-out: percent of control
Protocol: (§1) In vitro profiling of Compound I-2 (1 μM) was performed using the DiscoveRx KINOMEscan® platform.

RIOK1 = RIOK1 (Homo sapiens (Human), UniProt Q9BRS2); conditions: read-out: percent of control
Protocol: as §1

CLK4 = CLK4 (Homo sapiens (Human), UniProt Q9HAZ1); conditions: read-out: percent of control
Protocol: as §1

CDK11 = CDK11 (Homo sapiens (Human), UniProt Q9BWU1); conditions: read-out: percent of control
Protocol: as §1

SGK2 = SGK2 (Homo sapiens (Human), UniProt Q9HBY8); conditions: read-out: percent of control
Protocol: as §1

RET (M918T) = RET (M918T) (Homo sapiens (Human), UniProt P07949, M918T); conditions: read-out: percent of control
Protocol: as §1

RIPK2 = RIPK2 (Homo sapiens (Human), UniProt O43353); conditions: read-out: percent of control
Protocol: as §1

AKT2 = AKT2 (Homo sapiens (Human), UniProt P31751); conditions: read-out: percent of control
Protocol: as §1

ERK4 = ERK4 (Homo sapiens (Human), UniProt P31152); conditions: read-out: percent of control
Protocol: as §1

PIK3CA = PIK3CA (Homo sapiens (Human), UniProt P42336); conditions: read-out: percent of control
Protocol: as §1

PIP5K2C = PIP5K2C (Homo sapiens (Human), UniProt Q8TBX8); conditions: read-out: percent of control
Protocol: as §1

NEK6 = NEK6 (Homo sapiens (Human), UniProt Q9HC98); conditions: read-out: percent of control
Protocol: as §1

YANK2 = YANK2 (Homo sapiens (Human), UniProt Q9NY57); conditions: read-out: percent of control
Protocol: as §1

CIT = CIT (Homo sapiens (Human), UniProt O14578); conditions: read-out: percent of control
Protocol: as §1

SgK110 = SgK110 (Homo sapiens (Human), UniProt P0C264); conditions: read-out: percent of control
Sequence of SgK110 (P0C264 whole entry): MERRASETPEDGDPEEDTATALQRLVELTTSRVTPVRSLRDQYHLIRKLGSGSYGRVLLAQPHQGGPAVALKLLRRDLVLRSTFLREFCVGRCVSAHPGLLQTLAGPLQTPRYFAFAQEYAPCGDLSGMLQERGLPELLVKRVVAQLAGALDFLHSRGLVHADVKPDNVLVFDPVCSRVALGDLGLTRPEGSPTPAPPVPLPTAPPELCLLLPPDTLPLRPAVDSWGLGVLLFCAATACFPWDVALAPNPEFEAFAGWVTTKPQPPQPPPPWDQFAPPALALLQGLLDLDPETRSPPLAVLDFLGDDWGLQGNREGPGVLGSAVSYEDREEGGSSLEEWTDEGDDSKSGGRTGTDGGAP
Protocol: as §1

VPS34 = VPS34 (Homo sapiens (Human), UniProt Q8NEB9); conditions: read-out: percent of control
Protocol: as §1

FGFR3 (G697C) = FGFR3 (G697C) (Homo sapiens (Human), UniProt P22607, G697C); conditions: read-out: percent of control
Protocol: as §1

KIT(V559D,T670I) = KIT(V559D,T670I) (Homo sapiens (Human), UniProt P10721, T670I/V559D); conditions: read-out: percent of control
Protocol: as §1

PLK2 = PLK2 (Homo sapiens (Human), UniProt Q9NYY3); conditions: read-out: percent of control
Protocol: as §1

MYO3B = MYO3B (Homo sapiens (Human), UniProt Q8WXR4); conditions: read-out: percent of control
Protocol: as §1

FLT3 (ITD,F691L) = conditions: 1 μM
Protocol: as §1

FLT3-autoinhibited = FLT3-autoinhibited (Homo sapiens (Human), UniProt P36888); conditions: read-out: percent of control
Protocol: as §1

DRAK1 = DRAK1 (Homo sapiens (Human), UniProt Q9UEE5); conditions: read-out: percent of control
Protocol: as §1

TRKC = TRKC (Homo sapiens (Human), UniProt Q16288); conditions: read-out: percent of control
Protocol: as §1

CASK = CASK (Homo sapiens (Human), UniProt O14936); conditions: read-out: percent of control
Protocol: as §1

MAP3K15 = MAP3K15 (Homo sapiens (Human), UniProt Q6ZN16); conditions: read-out: percent of control
Protocol: as §1

PRKCH = PRKCH (Homo sapiens (Human), UniProt P24723); conditions: read-out: percent of control
Sequence of PRKCH (P24723 whole entry): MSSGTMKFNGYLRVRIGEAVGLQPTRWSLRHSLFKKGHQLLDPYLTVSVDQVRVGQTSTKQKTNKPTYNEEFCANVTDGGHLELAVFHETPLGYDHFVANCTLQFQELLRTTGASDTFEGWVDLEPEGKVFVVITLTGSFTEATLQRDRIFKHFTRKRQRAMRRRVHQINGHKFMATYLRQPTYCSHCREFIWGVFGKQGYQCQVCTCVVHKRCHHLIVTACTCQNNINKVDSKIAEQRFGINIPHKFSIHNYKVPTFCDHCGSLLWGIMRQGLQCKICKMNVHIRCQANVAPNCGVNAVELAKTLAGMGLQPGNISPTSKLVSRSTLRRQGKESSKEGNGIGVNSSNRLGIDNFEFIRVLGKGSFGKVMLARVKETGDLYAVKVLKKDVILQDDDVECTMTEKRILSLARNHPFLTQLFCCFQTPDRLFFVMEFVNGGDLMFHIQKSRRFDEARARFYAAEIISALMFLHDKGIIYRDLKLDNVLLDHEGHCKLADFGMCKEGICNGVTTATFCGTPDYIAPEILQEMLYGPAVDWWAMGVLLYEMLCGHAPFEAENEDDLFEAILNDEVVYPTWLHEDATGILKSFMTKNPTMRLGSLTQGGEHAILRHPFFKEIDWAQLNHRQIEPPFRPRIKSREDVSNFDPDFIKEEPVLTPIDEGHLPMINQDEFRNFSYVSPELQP
Protocol: as §1

BRSK1 = BRSK1 (Homo sapiens (Human), UniProt Q8TDC3); conditions: read-out: percent of control
Sequence of BRSK1 (Q8TDC3 whole entry): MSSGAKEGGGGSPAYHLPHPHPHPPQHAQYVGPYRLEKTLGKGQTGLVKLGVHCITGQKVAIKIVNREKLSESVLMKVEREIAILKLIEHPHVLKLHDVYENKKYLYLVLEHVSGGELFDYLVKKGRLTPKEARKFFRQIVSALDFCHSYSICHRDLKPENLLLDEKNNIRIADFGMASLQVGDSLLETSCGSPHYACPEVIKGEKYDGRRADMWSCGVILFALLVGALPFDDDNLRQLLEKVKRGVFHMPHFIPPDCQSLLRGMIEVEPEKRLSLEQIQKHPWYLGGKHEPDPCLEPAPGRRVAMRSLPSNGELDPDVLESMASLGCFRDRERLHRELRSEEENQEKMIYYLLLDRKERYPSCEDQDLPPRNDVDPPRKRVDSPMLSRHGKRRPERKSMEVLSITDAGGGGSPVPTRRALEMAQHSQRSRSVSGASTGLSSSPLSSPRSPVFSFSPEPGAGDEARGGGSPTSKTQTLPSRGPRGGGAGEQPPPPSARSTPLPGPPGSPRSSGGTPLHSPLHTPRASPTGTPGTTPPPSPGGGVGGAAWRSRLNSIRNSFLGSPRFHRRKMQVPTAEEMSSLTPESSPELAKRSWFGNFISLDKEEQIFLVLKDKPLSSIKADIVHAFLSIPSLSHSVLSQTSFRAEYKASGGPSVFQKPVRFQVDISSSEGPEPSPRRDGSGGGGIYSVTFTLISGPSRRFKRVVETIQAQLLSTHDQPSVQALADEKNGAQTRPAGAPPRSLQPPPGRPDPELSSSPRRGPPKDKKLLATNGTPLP
Protocol: as §1

EPHB2 = EPHB2 (Homo sapiens (Human), UniProt P29323); conditions: read-out: percent of control
Protocol: as §1

PIKFYVE = PIKFYVE (Homo sapiens (Human), UniProt Q9Y2I7); conditions: read-out: percent of control
Protocol: as §1

PFCDPK1(P.falciparum) = PFCDPK1(P.falciparum) (Plasmodium falciparum (isolate 3D7), UniProt P62344); conditions: read-out: percent of control
Protocol: as §1

FLT4 = FLT4 (Homo sapiens (Human), UniProt P35916); conditions: read-out: percent of control
Protocol: as §1

MAP3K3 = MAP3K3 (Homo sapiens (Human), UniProt Q99759); conditions: read-out: percent of control
Sequence of MAP3K3 (Q99759 whole entry): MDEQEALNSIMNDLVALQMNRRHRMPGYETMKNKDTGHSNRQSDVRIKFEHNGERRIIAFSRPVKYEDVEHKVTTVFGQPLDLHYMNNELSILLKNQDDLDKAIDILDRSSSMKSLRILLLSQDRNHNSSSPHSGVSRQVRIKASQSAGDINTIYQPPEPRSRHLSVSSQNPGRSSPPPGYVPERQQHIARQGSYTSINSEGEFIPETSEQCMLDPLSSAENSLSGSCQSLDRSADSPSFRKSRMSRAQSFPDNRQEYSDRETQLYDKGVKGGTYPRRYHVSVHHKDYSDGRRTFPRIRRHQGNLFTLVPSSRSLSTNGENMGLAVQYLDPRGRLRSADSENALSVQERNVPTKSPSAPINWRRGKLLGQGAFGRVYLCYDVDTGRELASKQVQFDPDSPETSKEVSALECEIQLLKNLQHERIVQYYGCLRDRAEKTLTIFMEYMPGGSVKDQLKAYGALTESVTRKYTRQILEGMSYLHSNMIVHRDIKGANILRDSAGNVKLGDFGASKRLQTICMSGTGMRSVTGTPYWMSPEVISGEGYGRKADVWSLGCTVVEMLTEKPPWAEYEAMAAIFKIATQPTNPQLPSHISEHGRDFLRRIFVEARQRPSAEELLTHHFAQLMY
Protocol: as §1

FES = FES (Homo sapiens (Human), UniProt P07332); conditions: read-out: percent of control
Protocol: as §1

ICK = ICK (Homo sapiens (Human), UniProt Q9UPZ9); conditions: read-out: percent of control
Protocol: as §1

DMPK = DMPK (Homo sapiens (Human), UniProt Q09013); conditions: read-out: percent of control
Sequence of DMPK (Q09013 whole entry): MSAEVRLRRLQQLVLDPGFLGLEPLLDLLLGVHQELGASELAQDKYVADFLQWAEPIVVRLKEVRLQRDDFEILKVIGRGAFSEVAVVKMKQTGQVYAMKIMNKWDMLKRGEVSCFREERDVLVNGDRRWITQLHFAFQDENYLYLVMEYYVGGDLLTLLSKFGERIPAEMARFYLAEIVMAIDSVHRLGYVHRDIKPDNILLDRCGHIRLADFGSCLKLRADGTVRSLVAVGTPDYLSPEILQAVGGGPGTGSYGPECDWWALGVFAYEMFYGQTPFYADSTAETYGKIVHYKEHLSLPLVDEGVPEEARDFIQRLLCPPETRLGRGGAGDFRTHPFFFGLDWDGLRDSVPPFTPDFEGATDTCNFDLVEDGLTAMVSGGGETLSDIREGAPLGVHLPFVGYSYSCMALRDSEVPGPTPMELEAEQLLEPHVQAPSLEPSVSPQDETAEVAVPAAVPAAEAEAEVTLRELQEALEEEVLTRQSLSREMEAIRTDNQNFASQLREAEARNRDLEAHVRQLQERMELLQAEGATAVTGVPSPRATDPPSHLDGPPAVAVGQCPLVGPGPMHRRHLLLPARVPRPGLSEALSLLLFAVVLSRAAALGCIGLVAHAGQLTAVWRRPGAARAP
Protocol: as §1

TNIK = TNIK (Homo sapiens (Human), UniProt Q9UKE5); conditions: read-out: percent of control
Protocol: as §1

WNK3 = WNK3 (Homo sapiens (Human), UniProt Q9BYP7); conditions: read-out: percent of control
Sequence of WNK3 (Q9BYP7 whole entry): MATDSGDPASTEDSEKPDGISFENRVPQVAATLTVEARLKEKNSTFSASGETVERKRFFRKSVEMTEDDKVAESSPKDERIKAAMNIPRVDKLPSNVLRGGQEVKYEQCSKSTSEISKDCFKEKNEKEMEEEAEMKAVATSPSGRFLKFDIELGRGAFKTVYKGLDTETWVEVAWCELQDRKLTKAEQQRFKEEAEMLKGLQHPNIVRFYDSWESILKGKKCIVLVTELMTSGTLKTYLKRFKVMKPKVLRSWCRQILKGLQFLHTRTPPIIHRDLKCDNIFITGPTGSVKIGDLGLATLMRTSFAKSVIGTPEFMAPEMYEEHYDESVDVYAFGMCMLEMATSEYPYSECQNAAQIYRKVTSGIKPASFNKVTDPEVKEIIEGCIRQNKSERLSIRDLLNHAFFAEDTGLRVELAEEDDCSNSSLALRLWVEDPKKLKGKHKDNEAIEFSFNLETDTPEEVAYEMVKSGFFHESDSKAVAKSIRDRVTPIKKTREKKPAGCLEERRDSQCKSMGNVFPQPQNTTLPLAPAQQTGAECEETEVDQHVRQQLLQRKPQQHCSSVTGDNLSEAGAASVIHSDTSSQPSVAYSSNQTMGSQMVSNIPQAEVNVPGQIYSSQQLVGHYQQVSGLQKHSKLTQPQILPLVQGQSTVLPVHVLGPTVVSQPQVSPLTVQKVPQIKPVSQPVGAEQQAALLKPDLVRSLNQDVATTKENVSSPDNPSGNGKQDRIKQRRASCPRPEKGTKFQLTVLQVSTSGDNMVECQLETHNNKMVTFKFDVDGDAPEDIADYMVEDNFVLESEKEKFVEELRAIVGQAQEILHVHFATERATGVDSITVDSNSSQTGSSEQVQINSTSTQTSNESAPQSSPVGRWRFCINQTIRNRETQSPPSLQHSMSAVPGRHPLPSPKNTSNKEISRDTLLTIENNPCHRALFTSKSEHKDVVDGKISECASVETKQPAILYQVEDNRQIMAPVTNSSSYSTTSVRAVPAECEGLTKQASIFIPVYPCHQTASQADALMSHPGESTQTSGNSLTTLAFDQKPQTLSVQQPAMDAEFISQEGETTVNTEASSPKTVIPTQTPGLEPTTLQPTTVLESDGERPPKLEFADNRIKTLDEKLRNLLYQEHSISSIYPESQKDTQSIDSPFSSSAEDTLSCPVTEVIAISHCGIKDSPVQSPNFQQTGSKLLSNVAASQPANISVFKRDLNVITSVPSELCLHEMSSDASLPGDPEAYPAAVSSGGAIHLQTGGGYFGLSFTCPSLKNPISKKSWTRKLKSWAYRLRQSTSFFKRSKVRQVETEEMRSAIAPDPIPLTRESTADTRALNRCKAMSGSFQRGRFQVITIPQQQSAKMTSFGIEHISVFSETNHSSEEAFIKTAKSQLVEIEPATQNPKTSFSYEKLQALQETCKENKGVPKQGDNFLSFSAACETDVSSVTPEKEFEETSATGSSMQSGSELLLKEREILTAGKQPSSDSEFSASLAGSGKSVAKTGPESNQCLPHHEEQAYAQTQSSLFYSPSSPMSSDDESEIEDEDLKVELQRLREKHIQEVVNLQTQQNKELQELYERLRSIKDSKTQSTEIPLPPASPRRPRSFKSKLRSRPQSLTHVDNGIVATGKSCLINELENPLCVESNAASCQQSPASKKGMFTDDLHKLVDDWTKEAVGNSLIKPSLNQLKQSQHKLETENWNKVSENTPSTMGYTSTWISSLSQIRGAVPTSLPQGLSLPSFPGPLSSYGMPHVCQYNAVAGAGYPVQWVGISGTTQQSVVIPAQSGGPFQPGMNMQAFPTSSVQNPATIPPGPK
Protocol: as §1

GRK3 = GRK3 (Homo sapiens (Human), UniProt P35626); conditions: read-out: percent of control
Protocol: as §1

SMILES	remaining binding at 1 µM (TGFBR1) [%]	remaining binding at 1 µM (RIOK1) [%]	remaining binding at 1 µM (CLK4) [%]	remaining binding at 1 µM (CDK11) [%]	remaining binding at 1 µM (SGK2) [%]	remaining binding at 1 µM (RET (M918T)) [%]	remaining binding at 1 µM (RIPK2) [%]	remaining binding at 1 µM (AKT2) [%]	remaining binding at 1 µM (ERK4) [%]	remaining binding at 1 µM (PIK3CA) [%]	remaining binding at 1 µM (PIP5K2C) [%]	remaining binding at 1 µM (NEK6) [%]	remaining binding at 1 µM (YANK2) [%]	remaining binding at 1 µM (CIT) [%]	remaining binding at 1 µM (SgK110) [%]	remaining binding at 1 µM (VPS34) [%]	remaining binding at 1 µM (FGFR3 (G697C)) [%]	remaining binding at 1 µM (KIT(V559D,T670I)) [%]	remaining binding at 1 µM (PLK2) [%]	remaining binding at 1 µM (MYO3B) [%]	further results
CCN1CCN(Cc2cc(NC(=O)c3ccc(C)c(-c4ccc5nc(NC(=O)C6CC6)cn5n4)c3)cc(C(F)(F)F)c2)CC1 [Compound I-2, 3-(2-(cyclopropanecarboxamido)imidazo[1,2-b]pyridazin-6-yl)-N-(3-((4-ethylpiperazin-1-yl)methyl)-5-(trifluoromethyl)phenyl)-4-methylbenzamide]	94	100	11	0.6	87	0.05	89	100	96	78	5.7	100	91	0.1	75	91	87	6.6	90	80	percent of control (FLT3 (ITD,F691L)): 12%; remaining binding at 1 µM (FLT3-autoinhibited): 56%; remaining binding at 1 µM (DRAK1): 100%; remaining binding at 1 µM (TRKC): 0.05%; remaining binding at 1 µM (CASK): 86%; remaining binding at 1 µM (MAP3K15): 55%; remaining binding at 1 µM (PRKCH): 86%; remaining binding at 1 µM (BRSK1): 100%; remaining binding at 1 µM (EPHB2): 0%; remaining binding at 1 µM (PIKFYVE): 93%; remaining binding at 1 µM (PFCDPK1(P.falciparum)): 84%; remaining binding at 1 µM (FLT4): 0.05%; remaining binding at 1 µM (MAP3K3): 48%; remaining binding at 1 µM (FES): 12%; remaining binding at 1 µM (ICK): 50%; remaining binding at 1 µM (DMPK): 87%; remaining binding at 1 µM (TNIK): 16%; remaining binding at 1 µM (WNK3): 92%; remaining binding at 1 µM (GRK3): 87%
CCN1CCN(Cc2cc(NC(=O)c3ccc(C)c(-c4ccc5nc(NC(=O)C6CC6)cn5c4)c3)cc(C(F)(F)F)c2)CC1 [Compound I-6, 3-(2-(cyclopropanecarboxamido)imidazo[1,2-a]pyridin-6-yl)-N-(3-((4-ethylpiperazin-1-yl)methyl)-5-(trifluoromethyl)phenyl)-4-methylbenzamide]	100	95	28	2.7	76	0	35	98	100	96	46	100	100	0.35	57	93	69	5.5	96	49	percent of control (FLT3 (ITD,F691L)): 34%; remaining binding at 1 µM (FLT3-autoinhibited): 58%; remaining binding at 1 µM (DRAK1): 94%; remaining binding at 1 µM (TRKC): 0.05%; remaining binding at 1 µM (CASK): 85%; remaining binding at 1 µM (MAP3K15): 95%; remaining binding at 1 µM (PRKCH): 100%; remaining binding at 1 µM (BRSK1): 96%; remaining binding at 1 µM (EPHB2): 0%; remaining binding at 1 µM (PIKFYVE): 100%; remaining binding at 1 µM (PFCDPK1(P.falciparum)): 88%; remaining binding at 1 µM (FLT4): 0.3%; remaining binding at 1 µM (MAP3K3): 56%; remaining binding at 1 µM (FES): 0.95%; remaining binding at 1 µM (ICK): 68%; remaining binding at 1 µM (DMPK): 100%; remaining binding at 1 µM (TNIK): 14%; remaining binding at 1 µM (WNK3): 83%; remaining binding at 1 µM (GRK3): 90%
